Results reported in patent publication US12384777B2 (Tay Therapeutics Limited, priority 2019, dated 2025).

Key:
BRDT(1) = BRDT(1) (Homo sapiens (Human), UniProt Q58F21); assay: Bromodomain binding assay, BRDT(1); conditions: single point, screened at 30 times Kd; lower numbers indicate stronger hits
Method: (§1) T7 phage strains displaying bromodomains were grown in parallel in 24-well blocks in an E. coli host derived from the BL21 strain. E. coli were grown to log-phase and infected with T7 phage from a frozen stock (multiplicity of infection=0.4) and incubated with shaking at 32° C. until lysis (90-150 min). The lysates were centrifuged (5,000×g) and filtered (0.2 μm) to remove cell debris. Streptavidin-coated magnetic beads were treated with biotinylated small molecule or acetylated peptide ligands for 30 min at RT to generate affinity resins for bromodomain assays. The ligated beads were blocked with excess biotin and washed with blocking buffer (SeaBlock (Pierce), 1% BSA, 0.05% Tween 20, 1 mM DTT) to remove unbound ligand and to reduce non-specific phage binding. Binding reactions were assembled by combining bromodomains, ligated affinity beads, and test compounds in 1× binding buffer (16% SeaBlock, 0.32×PBS, 0.02% BSA, 0.04% Tween 20, 0.004% Sodium azide, 7.9 mM DTT). Test compounds were prepared as 1000× stocks in 100% DMSO and subsequently diluted 1:25 in MEG. The compounds were then diluted directly into the assays such that the final concentrations of DMSO and MEG were 0.1% and 2.4%, respectively. All reactions were performed in polypropylene 384-well plates in a final volume of 0.02 ml. The assay plates were incubated at RT with shaking for 1 hr and the affinity beads were washed with wash buffer (1×PBS, 0.05% Tween 20). The beads were then re-suspended in elution buffer (1×PBS, 0.05% Tween 20, 2 μM non-biotinylated affinity ligand) and incubated at RT with shaking for 30 min. The bromodomain concentration in the eluates was measured by quantitative polymerase chain reaction (qPCR).
(§2) An 11-point 3-fold serial dilution of each test compound was prepared in 100% DMSO at 1000× final test concentration. […] Most dissociation constants were determined using a compound top concentration=10,000 nM. If the initial dissociation constant determined was <0.169 nM (the lowest concentration tested), the measurement was repeated with a serial dilution starting at a lower top concentration. […]

BRDT(2) = BRDT(2) (Homo sapiens (Human), UniProt Q58F21); assay: Bromodomain binding assay, BRDT(2); conditions: single point, screened at 30 times Kd; lower numbers indicate stronger hits
Method: as §1, §2

[1] = Skin penetration (Franz cell); format: in vitro ADME; conditions: epidermis of pig/human skin after 24 hour exposure
Method: A dosing solution was prepared for each test compound at a saturated concentration in an appropriate formulation mixture. The positive control, caffeine (final concentration 10 mg/mL), was prepared in 50:50 transcutol/water. Warm, degassed phosphate buffered saline (PBS) was applied to the receiving chambers of each jacketed Franz cell (1 cm containing a magnetic stirring bar). Pig/Human skin was removed from −80° C. storage and cut to size (˜2 cm^2) using a scalpel. The skin was then allowed to thaw at RT before being placed into warmed PBS for 10 min. Each skin piece was then dried before being placed onto the orifice of the Franz cell, removing any bubbles that occurred. […]
A calibration line was prepared in PBS (5000 ng/mL-0.2 ng/mL). […] All samples were quantified using UPLC-MS/MS (Waters Xevo TQ-S).
The concentration of compound present at each time point was corrected for the addition of fresh buffer. By plotting the concentration of compound vs time, the J flux and T lag could be calculated (values for caffeine should be approximately J Flux: 0.9-1.1 μg/cm/hr, Tlag: 244-257 min, ˜20% of dose present in receiving chamber after 24 hrs, mass balance 70-90%).
Skin extraction samples were corrected for dilution factor and volume of extraction solution. The quantity of dose measured in skin layers and time point samples were used to measure the mass balance of the experiment.

BRD2(1) = BRD2(1) (Homo sapiens (Human), UniProt P25440); assay: Bromodomain binding assay, BRD2(1); conditions: single point, screened at 30 times Kd; lower numbers indicate stronger hits
Method: as §1, §2

BRD3(2) = BRD3(2) (Homo sapiens (Human), UniProt Q15059); assay: Bromodomain binding assay, BRD3(2); conditions: single point, screened at 30 times Kd; lower numbers indicate stronger hits
Method: as §1, §2

BRD2(2) = BRD2(2) (Homo sapiens (Human), UniProt P25440); assay: Bromodomain binding assay, BRD2(2); conditions: single point, screened at 30 times Kd; lower numbers indicate stronger hits
Method: as §1, §2

[2] = tested on: healthy human skin stimulated by a Th2 or Th17 biasing cocktail; assay: Th2 and Th17 stimulation of human skin explants, IL-4 / IL-17A mRNA; format: cell-based
Method: • 1. Freshly excised healthy human skin tissue from abdominoplasties is defatted, cleaned and sectioned into 7 mm biopsies. • 2. The biopsies are placed in Transwell® inserts with the epidermis apical and exposed to air and the dermis submerged in media in the basal chamber. • 3. The biopsies are pre-treated overnight at 37° C., 5% CO2 with different compounds and controls added to the media in the basal chamber. • 4. The next day, contents of the basal chamber is replaced with fresh media containing the test compound and a stimulation cocktail for either Th2 inflammation (proprietary Medpharm cocktail) or Th17 inflammation (mix of antibodies against CD3, CD28, IL-4, IFNγ and recombinant IL-1β, IL-6, IL-21, TGF-β). • 5. The biopsies are incubated at 37° C., 5% CO2 for a further 24 hrs. • 6. After harvesting, the biopsies are cut in half, and one half is homogenized and used for RNA extraction by standard methods. IL-4 or IL-17A is assessed by RT-qPCR.

Chain of BRD2(1) (P25440 74-180): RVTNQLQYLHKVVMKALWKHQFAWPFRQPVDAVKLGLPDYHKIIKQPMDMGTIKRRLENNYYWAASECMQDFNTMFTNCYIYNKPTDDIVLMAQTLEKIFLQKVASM
Chain of BRD2(2) (P25440 344-453): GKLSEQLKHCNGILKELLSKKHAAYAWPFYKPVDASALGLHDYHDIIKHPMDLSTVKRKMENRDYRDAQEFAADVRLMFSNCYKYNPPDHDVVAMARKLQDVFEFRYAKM
Chain of BRD3(2) (Q15059 306-415): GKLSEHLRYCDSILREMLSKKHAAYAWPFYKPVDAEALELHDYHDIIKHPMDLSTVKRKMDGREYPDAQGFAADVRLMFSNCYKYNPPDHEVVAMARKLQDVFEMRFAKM

With `Cn1cc(-c2cccc(O)c2Oc2ccccc2)c2cc[nH]c2c1=O` [Example 1, 4-(3-hydroxy-2-phenoxyphenyl)-6-methyl-1,6-dihydro-7H-pyrrolo[2,3-c]pyridin-7-one] the “BRDT(1) % Ctrl” value (BRDT(1)) was 0 % Ctrl, the “BRDT(2) % Ctrl” value (BRDT(2)) was 3.8 % Ctrl and the “Epidermal concentration” value [1] was 27 µM. For the same compound, the “BRD2(1) % Ctrl” value (BRD2(1)) was 0 % Ctrl, the “BRD3(2) % Ctrl” value (BRD3(2)) was 0.05 % Ctrl and the “BRD2(2) % Ctrl” value (BRD2(2)) was 0.6 % Ctrl. The “% reduction in IL-4 mRNA (IL-4)” value ([2]; 2.5 μM, Th2 biasing cocktail) was “+++ (> 75% reduction)”, the “% reduction in IL-17A mRNA (IL-17)” value ([2]; 2.5 μM, Th17 biasing cocktail) was “+++ (> 75% reduction)” and the “reduction of IL-4 or IL-17 levels” value ([2]; Th2 or Th17 biasing cocktail) was over 50%.
